Activity calls are given as the source filed them. The calls are words filed in the database; no cut-off is given here.
Columns and labels:
Candida albicans [1] = assay: Induction of reactive oxygen species generation in Candida albicans BWP17 assessed as increase in ROS level at 16 ug/ml incubated for 18 hrs by DCFH-DA staining based flow cytometric analysis (reference value: 7.2+/- 0.2%); format: functional; conditions: dose 16 µg/ml
Candida albicans [2] = assay: Antifungal activity against Candida albicans SC5314 assessed as inhibition of fungal growth at 8 ug/ml incubated for 48 hrs by M27-A3 based microdilution method relative to control; format: functional
Candida albicans [3] = assay: Antifungal activity against Candida albicans SC5314 assessed as inhibition of fungal growth at 4 ug/ml incubated for 18 hrs by M27-A3 based microdilution method relative to control; format: functional
Candida albicans [4] = assay: Antifungal activity against Candida albicans SC5314 assessed as inhibition of fungal growth at 0.0625 ug/ml incubated for 48 hrs by M27-A3 based microdilution method relative to control; format: functional
Candida albicans [5] = assay: Effect on HSP90 expression in Candida albicans BWP17 assessed as decrease in relative expression of HSP90 gene level at 2 ug/ml incubated for 18 hrs by RT-PCR analysis; format: functional; conditions: dose 2.0 µg/ml
Candida albicans [6] = assay: Effect on HSP90 expression in Candida albicans cnb1delta/CNB1 mutant assessed as fold increase in relative expression of HSP90 gene level at 2 ug/ml incubated for 18 hrs in presence of calcium chloride by RT-PCR analysis; format: functional; conditions: dose 2.0 µg/ml
Candida albicans [7] = assay: Antifungal activity against Candida albicans SC5314 assessed as inhibition of fungal growth at 2 ug/ml incubated for 18 hrs by M27-A3 based microdilution method relative to control; format: functional
Candida albicans [8] = assay: In vivo antifungal activity against Candida albicans SC5314 infected in Galleria mellonella larvae assessed as prevention of candidiasis at 16 ug/ml administered 1 hr post infection measured after 5 days by Hematoxylin and eosin staining; format: functional, organism-based; conditions: dose 16.0 µg/ml, time 5.0 day
Candida albicans [9] = assay: Effect on HSP90 expression in Candida albicans BWP17 assessed as fold increase in relative expression of HSP90 gene level at 2 ug/ml incubated for 18 hrs in presence of calcium chloride by RT-PCR analysis; format: functional; conditions: dose 2.0 µg/ml
Candida albicans [10] = assay: Induction of macrophage-mediated Candida albicans SC5314 phagocytosis assessed as change in hyphae properties at 16 ug/ml incubated for 18 hrs in presence of mouse RAW264.7 macrophages by PI/Acridine orange double staining based confocal laser scanning microscopic analysis; format: functional; conditions: dose 16.0 µg/ml
Candida albicans [11] = assay: Antifungal against Candida albicans SC5314 biofilm co-cultured with African green monkey Vero cells assessed as accidental cell death in pseudohyphal cells by measuring orange fluorescence emission at 16 ug/ml incubated for 18 hrs by PI/acridine orange double staining based confocal laser scanning microscopic analysis; format: functional, organism-based; conditions: dose 16.0 µg/ml
Candida albicans [12] = assay: Antifungal activity against Candida albicans SC5314 assessed as inhibition of fungal growth at 0.125 ug/ml incubated for 48 hrs by M27-A3 based microdilution method relative to control; format: functional
Candida albicans [13] = assay: Antifungal activity against Candida albicans assessed as inhibition of fungal growth measured after 48 hrs in presence of exogenous ergosterol by M27-A3 based broth microdilution; format: functional
Candida albicans [14] = assay: Induction of apoptosis in Candida albicans SC5314 non-protoplast cells assessed as necrotic cells at 16 ug/ml incubated for 18 hrs by PI/Annexin V staining based flow cytometry assay; format: functional; conditions: dose 16 µg/ml
Candida albicans [15] = assay: Antifungal activity against Candida albicans SC5314 assessed as inhibition of fungal growth at 8 ug/ml incubated for 18 hrs by M27-A3 based microdilution method relative to control; format: functional
Candida albicans [16] = assay: Induction of apoptosis in Candida albicans SC5314 protoplast cells assessed as necrotic cells at 16 ug/ml incubated for 18 hrs by PI/Annexin V staining based flow cytometry assay; format: functional; conditions: dose 16 µg/ml
Vero = assay: Cytotoxicity against African green monkey Vero cells at > 64 ug/ml measured after 24 hrs by XTT assay; format: toxicity, cell-based; conditions: chlorocebus sabaeus, dose > 64 µg/ml
Candida albicans [17] = assay: Antifungal activity against Candida albicans SC5314 assessed as inhibition of fungal growth at 0.125 ug/ml incubated for 18 hrs by M27-A3 based microdilution method relative to control; format: functional
Candida albicans [18] = assay: Effect on HSP90 expression in Candida albicans cnb1delta/cnb1delta mutant assessed as decrease in relative expression of HSP90 gene level at 2 ug/ml incubated for 18 hrs by RT-PCR analysis; format: functional; conditions: dose 2.0 µg/ml
Candida albicans [19] = assay: Inhibition of ergosterol biosynthesis in Candida albicans SC5314 assessed as reduction in ergosterol level incubated for 18 hrs by spectrophotometric analysis; format: functional; conditions: dose 0.06-32 µg/ml, DDE = dose-dependent effect
Candida albicans [20] = assay: Induction of cell cycle arrest in Candida albicans SC5314 assessed as accumulation of cells in G0/G1 phase at 16 ug/ml incubated fro 18 hrs by PI staining based flow cytometry method; format: functional, organism-based; conditions: dose 16.0 µg/ml

Q: What does the source list for `O=C1CN=C(c2ccccc2Br)c2cc(F)ccc2N1CCCn1nnc(-c2ccccc2Cl)n1`?
A: Activity (Candida albicans [1]): 3.7%; inhibition at 8 µg/mL (Candida albicans [2]): 99.1%; inhibition at 4 µg/mL (Candida albicans [3]): 99.3%; inhibition at 0.0625 µg/mL (Candida albicans [4]): 99.4%; Activity (Candida albicans [5]): Active; fold change (FC) (Candida albicans [6]): 4; inhibition at 2 µg/mL (Candida albicans [7]): 100%; Activity (Candida albicans [8]): Active; fold change (FC) (Candida albicans [9]): 4; Activity (Candida albicans [10]): Active; Activity (Candida albicans [11]): Active; inhibition at 0.125 µg/mL (Candida albicans [12]): 99.3%; MIC (Candida albicans [13]): 2.56 µg/mL; Activity (Candida albicans [14]): 81.37%; inhibition at 8 µg/mL (Candida albicans [15]): 99.1%; Activity (Candida albicans [16]): 78.5%; Activity (Vero): Toxic; inhibition at 0.125 µg/mL (Candida albicans [17]): 99.3%; Activity (Candida albicans [18]): Active; Activity (Candida albicans [19]): Dde; Activity (Candida albicans [20]): Active
